{"source": "paper PMC9102668", "about": "“Highly Cytotoxic Osmium(II) Compounds and Their Ruthenium(II) Analogues Targeting Ovarian Carcinoma Cell Lines and Evading Cisplatin Resistance Mechanisms” (International Journal of Molecular Sciences, 2022)", "assay_type_in_all_cases": "cell-based", "key": {"Keratinocytes": {"tested_on": "Keratinocytes", "assay": "IC50 on non-cancerous cell cultures", "conditions": "normal primary short-term cell culture"}, "histone γH2AX-foci": {"tested_on": "histone γH2AX-foci", "assay": "γH2AX foci analysis (DNA damage)", "conditions": "IC50 concentration, 24h incubation", "from_the_text": "ROS production may also lead to endoplasmatic reticulum stress-induced apoptosis. In general, many ruthenium(II) complexes with different ligands induce intracellular ROS [94, 95, 96, 97, 98, 99]. Moreover, the cytotoxic activity of Os(II) compounds can be inhibited by vitamin E co-treatment pointing to the contribution of ROS [88]. In addition to mitochondrial dysfunction, Ru(II) complexes may affect glycolysis or topoisomerase I/II, thus inducing necroptosis. Ru(II) compounds with modified pyrithione ligands were recently described to overcome platinum resistance in ovarian cancer cells by inducing cytostatic G1 arrest, TrxR inhibition, and cell membrane damage. […] Future studies may identify the specific target proteins enabling molecular docking studies and specific refinement of the organo-metal compound structure. Altogether, presented compounds may use some of these alternative modes of action as well, as we see efficient cell death but no cell cycle arrest induction by Ru3/Ru14. Furthermore, the ruthenium(II) core atom might be responsible for this effect because of the lack of anticancer behaviour of the ligand L14 (Supplementary Figure S8). To further confirm that Ru compounds use another mechanism of action, DNA damage analyses were conducted for Ru3 and Ru14 (Figure 8). […]"}, "[1]": {"tested_on": "A2780 and SKOV3 cells and the resistant subcultures", "assay": "Cell cycle distribution, PI staining and FACS", "conditions": "48 h treatment, 24 h recovery", "protocol": "The reduced viability under treatment, as measured by the MTT assay, can be a result of cell cycle arrest and/or increased cell death. To further evaluate the anticancer properties of the ruthenium(II) complexes we measured cell cycle distribution and cell death rates after treatment with Ru3 or Ru14. After seeding and attaching, the cells were treated for 48 h with different concentrations of substances. For cell cycle distribution measurements, a recovery phase of 24 h was added after treatment, and cells were fixed and stained with PI for the DNA content. Arresting of cells in specific cell cycle phases gives them time to resolve the DNA damage (G1 arrest) or is an initial step to apoptosis if DNA damage is too severe (G2/M arrest).\nTo examine cell cycle distribution and cell death rates, 30,000 cells were seeded in 12 well plates. After attaching for 24 h cells were treated with Cisplatin, Ru3 and Ru14 for 48 h at various concentrations for cell cycle and cell death analyses. For cell death analysis, immediately after treatment cells were stained with Propidium Iodid (PI) (1 µg/mL) on ice and the number of dead cells was measured using BD Canto II. For cell cycle distribution, cells recovered for 24 h after treatment. Afterwards, cells were fixed in ice-cold, 50% EtOH for 24 h at −20 °C. For DNA staining, fixed cells were incubated in PBS with 0.05% Triton-X, 0.1 µg/mL RNaseA and 50 µg/mL PI for 1 h at 4 °C in dark. DNA content was measured using BD Canto II."}}}
{"substance": "[(η^6-p-cymene)Ru(1-(3-ethoxyphenyl)-3-(methylthio)-3-thioxo-prop-1-en-1-olate-O,S)] [Ru14]", "values": [{"measurement": "IC50", "setting": "Keratinocytes", "value": "> 100", "unit": "µM"}, {"measurement": "γH2AX-foci induction", "setting": "histone γH2AX-foci", "value": "less γH2AX-foci as Cisplatin"}, {"measurement": "effect on cell cycle distribution", "setting": "[1]", "value": "no or only a minor effect on cell cycle distribution"}]}
